The structures appear in SMILES notation.

For assay [1], the target named is T1, Arginase (Schistosoma mansoni, UniProt Q6WVP6).
T1 sequence (Q6WVP6 whole entry): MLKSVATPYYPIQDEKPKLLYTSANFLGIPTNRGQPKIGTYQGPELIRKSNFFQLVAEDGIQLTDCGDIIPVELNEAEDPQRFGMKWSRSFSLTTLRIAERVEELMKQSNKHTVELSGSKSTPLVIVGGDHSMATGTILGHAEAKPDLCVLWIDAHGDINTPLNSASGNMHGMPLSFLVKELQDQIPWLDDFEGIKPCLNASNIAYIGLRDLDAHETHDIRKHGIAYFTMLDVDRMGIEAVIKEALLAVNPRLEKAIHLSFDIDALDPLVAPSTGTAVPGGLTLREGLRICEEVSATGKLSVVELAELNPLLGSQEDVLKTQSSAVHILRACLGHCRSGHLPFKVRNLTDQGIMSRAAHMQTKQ
The experiment in a line: ITC. The note with it: pH 8.5. As to the method:
SmARG was dialyzed against 50 mM bicine (pH 8.5), 100 μM MnCl2, and 1.0 mM TCEP [5% (v/v) DMSO was included in the dialysis buffer when SmARG was titrated with ABH-PE and ABH-DP]. The inhibitor (ABH, 0.547 mM; NOHA, 1.097 mM; nor-NOHA, 0.443 mM; ABH-PE, 0.410 mM; ABH-DP, 0.436 mM) was dissolved in dialysis buffer.

The target of assay [2] is T1, Arginase. Briefly: Archibald assay. The note with it: pH 8.5. Here is the method:
Briefly, 0.5-50 mM L-arginine (pH 8.5) was added to a solution of 50 mM 4-(2-hydroxyethyl)piperazine-1-propanesulfonic acid (EPPS) (pH 8.5) and 100 μM MnCl2. The reaction (200 μL) was initiated by adding 1 μM SmARG at 21°C and terminated after 1 min using 30 μL of a 3:1 (v/v) concentrated acid/dye solution.

For `N[C@](CCCCB(O)O)(CCN1CCCCC1)C(=O)O`, on Arginase [1], the Kd was found to be 260 nM.
On to `N[C@@H](CCCCB(O)O)C(=O)O` [2(S)-amino-6-boronohexanoic acid (ABH)], for which the inhibitory constant (Ki) on Arginase [2] amounted to 1800 nM. Further, at Arginase [1], the Kd stood at 1300 nM.
On to `N[C@@](CCCCB(O)O)(C(=O)O)C1CCN(Cc2ccc(Cl)c(Cl)c2)CC1` [(R)-2-amino-6-borono-2-[1-(3,4-dichlorobenzyl)piperidin-4-yl]hexanoic acid (ABH-DP)], for which the Kd on Arginase [1] is 540 nM.
